Reference: PubChem BioAssay (NCI)
Values joined by “and” are separate entries in the source; they are usually repeats but may differ in a detail not shown here. Identical values can stand only once.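 The compound was tested at five concentrations on cells cultured in 96-well plates, with a 48-hour exposure period. GI50 = concentration required for 50% inhibition of growth. TGI is the concentration that stops growth completely.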

What was measured:
Assay in all cases: inhibition of tumour cell growth, NCI panel, 48 h
HCT-116 colon = tested on: HCT-116 colon
SR leukemia = tested on: SR leukemia
LXFL 529 NSCLC = tested on: LXFL 529 NSCLC
NCI-H460 lung = tested on: NCI-H460 lung
HOP-92 NSCLC = tested on: HOP-92 NSCLC
NCI-H23 lung = tested on: NCI-H23 lung
SK-MEL-2 melanoma = tested on: SK-MEL-2 melanoma
M19-MEL melanoma = tested on: M19-MEL melanoma
UACC-62 melanoma = tested on: UACC-62 melanoma
MALME-3M melanoma = tested on: MALME-3M melanoma
RPMI-8226 leukemia = tested on: RPMI-8226 leukemia
COLO 205 colon = tested on: COLO 205 colon
NCI-H522 lung = tested on: NCI-H522 lung
A498 renal = tested on: A498 renal
DMS 273 small cell lung = tested on: DMS 273 small cell lung
SK-OV-3 ovarian = tested on: SK-OV-3 ovarian
HOP-62 NSCLC = tested on: HOP-62 NSCLC
IGROV1 ovarian = tested on: IGROV1 ovarian
M14 melanoma = tested on: M14 melanoma
786-0 renal = tested on: 786-0 renal
HCC-2998 colon = tested on: HCC-2998 colon
SN12C renal = tested on: SN12C renal
HCT-15 colon = tested on: HCT-15 colon
SF-268 CNS = tested on: SF-268 CNS
ACHN renal = tested on: ACHN renal
XF 498 CNS = tested on: XF 498 CNS
UO-31 renal = tested on: UO-31 renal
SNB-75 CNS = tested on: SNB-75 CNS
CAKI-1 renal = tested on: CAKI-1 renal
HL-60(TB) leukemia = tested on: HL-60(TB) leukemia
SK-MEL-28 melanoma = tested on: SK-MEL-28 melanoma
SNB-78 CNS = tested on: SNB-78 CNS
NCI-H226 lung = tested on: NCI-H226 lung
CCRF-CEM leukemia = tested on: CCRF-CEM leukemia
SF-539 CNS = tested on: SF-539 CNS
DLD-1 colon = tested on: DLD-1 colon
K-562 leukemia = tested on: K-562 leukemia
OVCAR-4 ovarian = tested on: OVCAR-4 ovarian
MOLT-4 leukemia = tested on: MOLT-4 leukemia
SNB-19 CNS = tested on: SNB-19 CNS
HOP-18 NSCLC = tested on: HOP-18 NSCLC
A549 NSCLC = tested on: A549 NSCLC
SW-620 colon = tested on: SW-620 colon
PC-3 prostate = tested on: PC-3 prostate
EKVX NSCLC = tested on: EKVX NSCLC
BT-549 breast = tested on: BT-549 breast
OVCAR-5 ovarian = tested on: OVCAR-5 ovarian
MDA-MB-231 breast = tested on: MDA-MB-231 breast
HT29 colon = tested on: HT29 colon
T-47D breast = tested on: T-47D breast
HS 578T breast = tested on: HS 578T breast
UACC-257 melanoma = tested on: UACC-257 melanoma
MDA-N = tested on: MDA-N
DU-145 prostate = tested on: DU-145 prostate
TK-10 renal = tested on: TK-10 renal

Compound: CCOc1ccc(NC(=O)c2c(N/N=C/c3ccc(OC)cc3)nc(=O)[nH]c2C)cc1
- TGI (HCT-116 colon): > 100 µM
- TGI (SR leukemia): > 100 µM
- TGI (LXFL 529 NSCLC): > 100 µM
- TGI (NCI-H460 lung): > 100 µM
- TGI (HOP-92 NSCLC): > 100 µM
- TGI (NCI-H23 lung): > 100 µM
- TGI (SK-MEL-2 melanoma): > 100 µM
- TGI (M19-MEL melanoma): > 100 µM
- TGI (UACC-62 melanoma): > 100 µM
- TGI (MALME-3M melanoma): > 100 µM
- TGI (RPMI-8226 leukemia): > 100 µM
- TGI (COLO 205 colon): > 100 µM
- TGI (NCI-H522 lung): 69.7 µM
- TGI (A498 renal): 39.4 µM
- TGI (DMS 273 small cell lung): > 100 µM
- TGI (SK-OV-3 ovarian): 83.1 µM
- TGI (HOP-62 NSCLC): > 100 µM
- TGI (IGROV1 ovarian): > 100 µM
- TGI (M14 melanoma): > 100 µM
- TGI (786-0 renal): > 100 µM
- TGI (HCC-2998 colon): > 100 µM
- TGI (SN12C renal): > 100 µM
- TGI (HCT-15 colon): > 100 µM
- TGI (SF-268 CNS): > 100 µM
- TGI (ACHN renal): > 100 µM
- TGI (XF 498 CNS): > 100 µM
- TGI (UO-31 renal): > 100 µM
- TGI (SNB-75 CNS): 96.5 µM
- TGI (CAKI-1 renal): > 100 µM
- TGI (HL-60(TB) leukemia): > 100 µM
- TGI (SK-MEL-28 melanoma): > 100 µM
- TGI (SNB-78 CNS): > 100 µM
- TGI (NCI-H226 lung): > 100 µM
- TGI (CCRF-CEM leukemia): > 100 µM
- TGI (SF-539 CNS): 91 µM
- TGI (DLD-1 colon): > 100 µM
- TGI (K-562 leukemia): > 100 µM
- TGI (OVCAR-4 ovarian): 88.4 µM
- TGI (MOLT-4 leukemia): > 100 µM

Compound: COc1ccc(/C=C\c2cc(OC)c(OC)c(OC)c2)cc1OP(=O)(O)O
- TGI (SNB-19 CNS): > 100 µM
- GI50 (HOP-18 NSCLC): > 100 µM
- TGI (HOP-18 NSCLC): > 100 µM
- TGI (A549 NSCLC): > 100 µM and 50 µM
- TGI (SK-MEL-2 melanoma): 0.0169 µM and 0.0953 µM
- TGI (UACC-62 melanoma): > 100 µM and 50 µM and > 64.3 µM
- TGI (SW-620 colon): > 100 µM and 50 µM
- TGI (PC-3 prostate): > 100 µM
- TGI (MALME-3M melanoma): > 100 µM and 24.5 µM and > 89 µM
- TGI (RPMI-8226 leukemia): 25.1 µM and 50 µM and > 100 µM
- TGI (EKVX NSCLC): > 100 µM and 50 µM
- TGI (BT-549 breast): > 100 µM
- TGI (OVCAR-5 ovarian): > 100 µM
- GI50 (HOP-62 NSCLC): 11.9 µM
- TGI (HOP-62 NSCLC): > 100 µM and 50 µM and > 76.1 µM
- TGI (IGROV1 ovarian): > 100 µM and 50 µM
- TGI (MDA-MB-231 breast): > 12.1 µM
- TGI (786-0 renal): > 100 µM
- GI50 (HCC-2998 colon): 0.929 µM
- GI50 (HT29 colon): 0.486 µM and 3.89 µM
- TGI (SN12C renal): > 100 µM and 50 µM
- GI50 (T-47D breast): 20.7 µM
- TGI (ACHN renal): > 100 µM and 50 µM and > 65 µM
- GI50 (HS 578T breast): 13.2 µM
- TGI (SNB-75 CNS): 50 µM and > 100 µM
- TGI (UACC-257 melanoma): 88.9 µM and 50 µM and > 100 µM
- TGI (CAKI-1 renal): > 67.5 µM and 50 µM and > 100 µM
- TGI (SK-MEL-28 melanoma): > 100 µM and 50 µM
- GI50 (MDA-N): < 0.0001 µM
- GI50 (DU-145 prostate): 0.609 µM
- TGI (DU-145 prostate): 0.356 µM and 0.371 µM
- TGI (SNB-78 CNS): > 100 µM and 50 µM
- TGI (CCRF-CEM leukemia): > 100 µM
- TGI (DLD-1 colon): > 100 µM and 50 µM
- TGI (K-562 leukemia): 50 µM and > 100 µM
- TGI (TK-10 renal): > 100 µM
- TGI (MOLT-4 leukemia): > 100 µM and 50 µM
